Counter-ions that a name gives are not always drawn.
Tests used:
[1] = molecular target: T1, Alpha-2A adrenergic receptor (Homo sapiens, UniProt P08913)
T1 sequence (P08913 whole entry): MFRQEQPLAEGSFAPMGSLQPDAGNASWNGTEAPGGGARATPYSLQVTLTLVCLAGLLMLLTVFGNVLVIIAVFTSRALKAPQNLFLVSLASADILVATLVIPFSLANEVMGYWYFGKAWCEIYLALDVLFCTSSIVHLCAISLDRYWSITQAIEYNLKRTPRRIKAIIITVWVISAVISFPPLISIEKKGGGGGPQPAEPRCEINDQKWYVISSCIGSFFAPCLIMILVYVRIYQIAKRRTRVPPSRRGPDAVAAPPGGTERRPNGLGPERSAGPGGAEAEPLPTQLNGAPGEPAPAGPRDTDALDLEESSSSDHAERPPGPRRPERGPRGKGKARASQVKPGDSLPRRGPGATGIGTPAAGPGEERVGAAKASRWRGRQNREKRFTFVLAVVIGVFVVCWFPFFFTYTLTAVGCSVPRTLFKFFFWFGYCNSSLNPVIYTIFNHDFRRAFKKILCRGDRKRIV

[2] = molecular target: T2, Alpha-1A adrenergic receptor (Homo sapiens, UniProt P35348)
T2 sequence (P35348 whole entry): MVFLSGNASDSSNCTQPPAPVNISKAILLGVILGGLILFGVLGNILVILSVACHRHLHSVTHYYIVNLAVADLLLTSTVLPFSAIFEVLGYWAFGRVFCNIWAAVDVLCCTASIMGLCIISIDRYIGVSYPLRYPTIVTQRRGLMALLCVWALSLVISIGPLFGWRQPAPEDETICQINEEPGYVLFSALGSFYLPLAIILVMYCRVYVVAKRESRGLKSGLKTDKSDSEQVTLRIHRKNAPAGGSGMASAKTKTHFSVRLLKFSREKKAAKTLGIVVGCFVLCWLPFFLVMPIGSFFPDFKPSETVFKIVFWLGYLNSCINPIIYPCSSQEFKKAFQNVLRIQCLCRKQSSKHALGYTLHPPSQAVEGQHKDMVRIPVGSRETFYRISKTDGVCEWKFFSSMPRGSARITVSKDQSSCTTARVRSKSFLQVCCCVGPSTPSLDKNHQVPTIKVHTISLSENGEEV

D(2) dopamine receptor = D(2) dopamine receptor (Homo sapiens, UniProt P14416)
Chain of D(2) dopamine receptor (P14416 whole entry): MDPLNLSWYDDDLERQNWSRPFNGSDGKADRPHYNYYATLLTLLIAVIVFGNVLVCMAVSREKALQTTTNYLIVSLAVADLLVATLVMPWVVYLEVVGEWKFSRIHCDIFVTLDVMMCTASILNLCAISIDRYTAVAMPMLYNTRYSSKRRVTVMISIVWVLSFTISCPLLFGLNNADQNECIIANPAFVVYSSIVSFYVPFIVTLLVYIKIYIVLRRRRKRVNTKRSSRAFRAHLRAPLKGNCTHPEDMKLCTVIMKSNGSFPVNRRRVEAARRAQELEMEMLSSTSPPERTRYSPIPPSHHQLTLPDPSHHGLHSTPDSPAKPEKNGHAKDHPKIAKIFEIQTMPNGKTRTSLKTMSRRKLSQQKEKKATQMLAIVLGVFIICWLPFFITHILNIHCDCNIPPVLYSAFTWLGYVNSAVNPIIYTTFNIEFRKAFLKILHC

CC(C)(C)[C@]1(O)CCN2C[C@H]3c4ccccc4CCc4cccc(c43)[C@@H]2C1
Ki [1]: 310 nM | Ki [2]: 56 nM

CN(C)CC/C=C1\c2ccccc2Sc2ccc(Cl)cc21
Ki (D(2) dopamine receptor): 8 nM

CN1CCCCC1CCN1c2ccccc2Sc2ccc([S+](C)[O-])cc21 (stereo unspecified)
Ki (D(2) dopamine receptor): 19 nM | Ki [1]: 1600 nM | Ki [2]: 2 nM

CN(C)CCCN1c2ccccc2Sc2ccccc21
Ki (D(2) dopamine receptor): 160 nM | Ki [1]: 900 nM | Ki [2]: 6 nM

CN1CCN(CCCN2c3ccccc3Sc3ccc(C(F)(F)F)cc32)CC1
Ki (D(2) dopamine receptor): 2.6 nM

OCCN1CCN(CCCN2c3ccccc3Sc3ccc(Cl)cc32)CC1 [4-[3-(2-chlorophenothiazin-10-yl)propyl]-1-piperazineethanol]
Ki (D(2) dopamine receptor): 1.4 nM

O=C(CCCN1CCC2(CC1)C(=O)NCN2c1ccccc1)c1ccc(F)cc1 [8-[4-(4-fluorophenyl)-4-oxidanylidene-butyl]-1-phenyl-1,3,8-triazaspiro[4.5]decan-4-one]
Ki [1]: 660 nM | Ki [2]: 1.2 nM

CN1CCN(C2=Nc3ccccc3Oc3ccc(Cl)cc32)CC1 [13-chloro-10-(4-methylpiperazin-1-yl)-2-oxa-9-azatricyclo[9.4.0.0^{3,8}]pentadeca-1(11),3,5,7,9,12,14-heptaene]
Ki [2]: 28 nM

CN1CCN(CC/C=C2/c3ccccc3Sc3ccc(S(=O)(=O)N(C)C)cc32)CC1 [MLS000028463]
Ki (D(2) dopamine receptor): 0.45 nM | Ki [1]: 200 nM | Ki [2]: 11 nM

CCc1c(C)[nH]c2c1C(=O)C(CN1CCOCC1)CC2 (stereo unspecified) [Moban]
Ki (D(2) dopamine receptor): 120 nM

CN(C)CCCN1c2ccccc2Sc2ccc(C(F)(F)F)cc21 [TRIFLUPROMAZINE]
Ki (D(2) dopamine receptor): 2.8 nM

— BindingDB's records for doi:10.1016/0014-2999(84)90478-3 (Mayo Clinic, 1984)
